Assay [1] relates to RS4;11 leukaemia tumour line. Nature of the assay: In vitro cytotoxicity (MTT) on RS4;11. The following applies: Homo sapiens; RS4;11 cells, 48 hours exposure. The format is cell-based. Here is the method: The cytotoxicity studies were carried out on the RS4;11 leukaemia tumour line.
The cells are distributed onto microplates and exposed to the test compounds for 48 hours.
The cell viability is then quantified by a colorimetric assay, the Microculture Tetrazolium Assay (Cancer Res., 1987, 47, 939-942).

For assay [2], the target named is T1, Bcl-2 protein (histag-Bcl-2, UniProtKB P10415) (Homo sapiens, UniProt P10415).
T1 construct: His tag
Nature of the assay: Inhibition of Bcl-2 by the fluorescence polarisation technique. The class given is binding. The following applies: fluorescence polarisation, 2 hours incubation; read-out: IC50 (nM) Bcl-2 FP. The procedure, abridged: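 Fluorescence polarisation competition: His-tagged human Bcl-2 (2.50×10^−8 M final) was mixed with fluorescein-labelled peptide (1.00×10^−8 M final) and increasing compound concentrations. Buffer was 10 mM Hepes, 150 mM NaCl, 0.05% Tween20, pH 7.4. Polarisation was read after 2 h.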

Where a name gives a salt, the structure may show the parent alone.

T1 sequence (P10415 whole entry): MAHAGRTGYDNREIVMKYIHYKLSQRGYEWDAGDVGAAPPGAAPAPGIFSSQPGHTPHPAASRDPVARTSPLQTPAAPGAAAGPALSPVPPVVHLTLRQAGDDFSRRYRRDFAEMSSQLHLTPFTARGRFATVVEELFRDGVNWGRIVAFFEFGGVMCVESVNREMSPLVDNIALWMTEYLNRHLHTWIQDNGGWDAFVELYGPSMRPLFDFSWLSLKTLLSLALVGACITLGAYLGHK

As to `O=C(c1ccc(Cl)cc1-c1cc(C(=O)N(c2ccc(O)cc2)c2ccc3c(c2)CCN3CCN2CCOCC2)c2n1CCCC2)N1CCc2ccccc2C1` [Example 5, 3-[5-Chloro-2-(3,4-dihydroisoquinolin-2(1H)-ylcarbonyl)phenyl]-N-(4-hydroxyphenyl)-N-{1-[2-(morpholin-4-yl)ethyl]-2,3-dihydro-1H-indol-5-yl}-5,6,7,8-tetrahydroindolizine-1-carboxamide], the figures for the 50% inhibitory concentration (IC50) in assay [1] and in assay [2] were 416 nM and 55.9 nM, respectively.

For `C[C@@H]1Cc2ccccc2CN1C(=O)c1cc2c(cc1-c1cc(C(=O)N(c3ccc(O)cc3)c3ccc(CCN4CCC(F)(F)C4)cc3)c3ccccn13)OCO2` [Example 36, N-{4-[2-(3,3-Difluoropyrrolidin-1-yl)ethyl]phenyl}-N-(4-hydroxyphenyl)-3-(6-{[(3R)-3-methyl-3,4-dihydroisoquinolin-2(1,H)-yl]carbonyl}-1,3-benzodioxol-5-yl)indolizine-1-carboxamide hydrochloride], the IC50 worked out at 49.7 nM in assay [1] and 12.6 nM in assay [2].

As to `C[C@@H]1Cc2ccccc2CN1C(=O)c1cc2c(cc1-c1cc(C(=O)N(c3ccc(O)cc3)c3cnn(C)c3)c3n1CCCC3)OCCO2` [Example 48, N-(4-Hydroxyphenyl)-3-(7-{[(3R)-3-methyl-3,4-dihydroisoquinolin-2(1H)-yl]carbonyl}-2,3-dihydro-1,4-benzodioxin-6-yl)-N-(1-methyl-1H-pyrazol-4-yl)-5,6,7,8-tetrahydroindolizine-1-carboxamide], the 50% inhibitory concentration (IC50) is 24.7 nM in assay [1] and 3.6 nM in assay [2].

With `C[C@@H]1Cc2ccccc2CN1C(=O)c1ccc(Cl)cc1-c1cc(C(=O)N(c2ccncc2)c2ccc(O)cc2)c2ccccn12` [Example 49, 3-(5-Chloro-2-{[(3R)-3-methyl-3,4-dihydroisoquinolin-2(1H)-yl]-carbonyl}phenyl)-N-(4-hydroxyphenyl)-N-(pyridin-4-yl)indolizine-1-carboxamide hydrochloride], the IC50 was 84.7 nM in assay [1] and 3.7 nM in assay [2].

For the molecule `Cc1cc(N(C(=O)c2cc(-c3cc4c(cc3C(=O)N3Cc5ccccc5C[C@H]3C)OCO4)n3ccccc23)c2ccc(O)cc2)ccn1` [Example 32, N-(4-Hydroxyphenyl)-3-(6-{[(3R)-3-methyl-3,4-dihydroisoquinolin-2(1H)-yl]carbonyl}-1,3-benzodioxol-5-yl)-N-(2-methylpyridin-4-yl)indolizine-1-carboxamide hydrochloride], the IC50 was 32.7 nM in assay [1] and 5 nM in assay [2].

For the molecule `C[C@@H]1Cc2ccccc2CN1C(=O)c1cc2c(cc1-c1cc(C(=O)N(c3ccc(O)cc3)c3ccc(CCN4CCCC(F)(F)C4)cc3)c3ccccn13)OCO2` [Example 35, N-{4-[2-(3,3-Difluoropiperidin-1-yl)ethyl]phenyl}-N-(4-hydroxyphenyl)-3-(6-{[(3R)-3-methyl-3,4-dihydroisoquinolin-2(1H)-yl]carbonyl}-1,3-benzodioxol-5-yl)indolizine-1-carboxamide hydrochloride], the IC50 in assay [1] worked out at 62.2 nM; in assay [2], 15.1 nM.

For the molecule `N#Cc1cccc(N(C(=O)c2cc(-c3cc4c(cc3C(=O)N3Cc5ccccc5C[C@H]3CCN3CCOCC3)OCO4)n3c2CCCC3)c2ccc(O)cc2)c1` [Example 23, N-(3-Cyanophenyl)-N-(4-hydroxyphenyl)-3-(6-{[(3S)-3-[2-(morpholin-4-yl)ethyl]-3,4-dihydroisoquinolin-2(1H)-yl]carbonyl}-1,3-benzodioxol-5-yl)-5,6,7,8-tetrahydroindolizine-1-carboxamide hydrochloride], the IC50 in assay [1] amounted to 9.99 nM; in assay [2], 3.8 nM.

Turning to `O=C(c1cc2c(cc1-c1cc(C(=O)N(c3ccccc3)c3ccc(O)cc3)c3n1CCCC3)OCO2)N1CCc2ccccc2C1` [Example 57, 3-[6-(3,4-Dihydroisoquinolin-2(1H)-ylcarbonyl)-1,3-benzodioxol-5-yl]-N-(4-hydroxyphenyl)-N-phenyl-5,6,7,8-tetrahydroindolizine-1-carboxamide], the IC50 in assay [1] was 282 nM; in assay [2], 21.2 nM.

Regarding `C[C@@H]1Cc2ccccc2CN1C(=O)c1ccc(Cl)cc1-c1cc(C(=O)N(c2ccc(O)cc2)c2cnn(C)c2)c2n1CCCC2` [Example 47, 3-(5-Chloro-2-{[(3R)-3-methyl-3,4-dihydroisoquinolin-2(1H)-yl]-carbonyl}phenyl)-N-(4-hydroxyphenyl)-N-(1-methyl-1H-pyrazol-4-yl)-5,6,7,8-tetrahydroindolizine-1-carboxamide], the 50% inhibitory concentration (IC50) in assay [1] came out at 90.1 nM; in assay [2], 4.3 nM.

`C[C@@H]1Cc2ccccc2CN1C(=O)c1cc2c(cc1-c1cc(C(=O)N(c3ccc(O)cc3)c3ccc4c(ccn4C)c3)c3n1CCCC3)OCO2` [Example 1, N-(4-Hydroxyphenyl)-3-(6-{[(3R)-3-methyl-3,4-dihydroisoquinolin-2(1H)-yl]carbonyl}-1,3-benzodioxol-5-yl)-N-(1-methyl-1H-indol-5-yl)-5,6,7,8-tetrahydro-indolizine-1-carboxamide]: the values for the IC50 in assay [1] and in assay [2] were 11.3 nM and 17.9 nM, respectively.

`C[C@@H]1Cc2ccccc2CN1C(=O)c1ccc(F)cc1-c1cc(C(=O)N(c2ccc(O)cc2)c2cnc3c(ccn3C)c2)c2ccccn12` [Example 63, 3-(5-Fluoro-2-{[(3R)-3-methyl-3,4-dihydroisoquinolin-2(1H)-yl]-carbonyl}phenyl)-N-(4-hydroxyphenyl)-N-(1-methyl-1H-pyrrolo[2,3-b]pyridin-5-yl)indolizine-1-carboxamide]: the 50% inhibitory concentration (IC50) in assay [1] was 25.4 nM; in assay [2], 6.2 nM.

Regarding `C[C@@H]1Cc2ccccc2CN1C(=O)c1cc2c(cc1-c1cc(C(=O)N(c3ccc(O)cc3)c3cnc4c(cnn4C)c3)c3ccccn13)OCO2` [Example 70, N-(4-Hydroxyphenyl)-3-(6-{[(3R)-3-methyl-3,4-dihydroisoquinolin-2(1,H)-yl]carbonyl]-1,3-benzodioxol-5-yl)-N-(1-methyl-1H-pyrazolo[3,4-b]pyridin-5-yl)indolizine-1-carboxamide], the 50% inhibitory concentration (IC50) in assay [1] turned out to be 6.17 nM; in assay [2] it was 5.2 nM.

With `C[C@@H]1Cc2ccccc2CN1C(=O)c1ccc(F)cc1-c1cc(C(=O)N(c2ccncc2)c2ccc(O)cc2)c2ccccn12` [Example 62, 3-(5-Fluoro-2-{[(3R)-3-methyl-3,4-dihydroisoquinolin-2(1H)-yl]-carbonyl}phenyl)-N-(4-hydroxyphenyl)-N-(pyridin-4-yl)indolizine-1-carboxamide], the figures for the half-inhibitory concentration (IC50) in assay [1] and in assay [2] were 96.6 nM and 5.6 nM, respectively.

For `C[C@@H]1Cc2ccccc2CN1C(=O)c1ccc(F)cc1-c1cc(C(=O)N(c2ccc(O)cc2)c2cnc3c(ccn3C)c2)c2n1CCCC2` [Example 65, 3-(5-Fluoro-2-{[(3R)-3-methyl-3,4-dihydroisoquinolin-2(1H)-yl]-carbonyl}phenyl)-N-(4-hydroxyphenyl)-N-(1-methyl-1H-pyrrolo[2,3-b]pyridin-5-yl)-5,6,7,8-tetrahydroindolizine-1-carboxamide], the IC50 worked out at 62.8 nM in assay [1] and 5.3 nM in assay [2].

Take `C[C@@H]1Cc2ccccc2CN1C(=O)c1cc2c(cc1-c1cc(C(=O)N(c3ccc(O)cc3)c3ccc4c(ccn4CCN4CCOCC4)c3)c3n1CCCC3)OCO2` [Example 2, N-(4-Hydroxyphenyl)-3-(6-{[(3R)-3-methyl-3,4-dihydroisoquinolin-2(1H)-yl]carbonyl}-1,3-benzodioxol-5-yl)-N-{1-[2-(morpholin-4-yl)ethyl]-1H-indol-5-yl}-5,6,7,8-tetrahydroindolizine-1-carboxamide hydrochloride]: the IC50 worked out at 36 nM in assay [1] and 17 nM in assay [2].

In the case of `Cc1ccc(N(C(=O)c2cc(-c3cc(F)ccc3C(=O)N3Cc4ccccc4C[C@H]3C)n3c2CNCC3)c2ccc(O)cc2)cc1F` [Example 10, 6-(5-Fluoro-2-{[(3R)-3-methyl-3,4-dihydroisoquinolin-2(1H)-yl]-carbonyl}phenyl)-N-(3-fluoro-4-methylphenyl)-N-(4-hydroxyphenyl)-1,2,3,4-tetrahydropyrrolo[1,2-a]pyrazine-8-carboxamide hydrochloride], the IC50 in assay [1] came out at 439 nM; in assay [2], 24.7 nM.

Consider `C[C@@H]1Cc2ccccc2CN1C(=O)c1ccc(F)cc1-c1cc(C(=O)N(c2ccc(O)cc2)c2cnn(C)c2)c2n1CCCC2` [Example 61, 3-(5-Fluoro-2-{[(3R)-3-methyl-3,4-dihydroisoquinolin-2(1H)-yl]-carbonyl}phenyl)-N-(4-hydroxyphenyl)-N-(1-methyl-1H-pyrazol-4-yl)-5,6,7,8-tetrahydroindolizine-1-carboxamide], for which the IC50 was 61.3 nM in assay [1] and 7 nM in assay [2].

In the case of `O=C(c1cc(-c2cc3c(cc2C(=O)N2Cc4ccccc4C[C@H]2CCN2CCOCC2)OCO3)n2c1CCCC2)N(c1ccccc1)c1cccc(F)c1` [Example 26, N-(3-Fluorophenyl)-3-(6-{[(3S)-3-[2-(morpholin-4-yl)ethyl]-3,4-dihydro-isoquinolin-2(1H)-yl]carbonyl}-1,3-benzodioxol-5-yl)-N-phenyl-5,6,7,8-tetrahydro-indolizine-1-carboxamide hydrochloride], the concentration for half-maximal inhibition (IC50) in assay [1] was 300 nM; in assay [2], 16.6 nM.

As to `CN(C(=O)c1cc(-c2cc3c(cc2C(=O)N2CCc4ccccc4C2)OCO3)n2ccccc12)c1ccc(O)cc1` [Example 83, 3-[6-(3,4-Dihydroisoquinolin-2(1H)-ylcarbonyl)-1,3-benzodioxol-5-yl]-N-(4-hydroxyphenyl)-N-methylindolizine-1-carboxamide], the IC50 in assay [1] was found to be 1500 nM; in assay [2], 35.8 nM.

A word on the IC50: it is the midpoint of a concentration-inhibition curve.
